The source of these data is patent US6229016A, “Method for treating tumors using 2-aryl-naphthyridin-4-ones” (priority 2000, dated 2001).

Holding throughout (type): cell-based
For experiment [1], the system named is MDA-N breast cancer cell line. Briefly: NCI in vitro screen, breast cancer MDA-N. The following applies: Homo sapiens, read-out: Cytotoxicity log GI50 (converted). An excerpt:
(§1) Compounds 41-51 and 53-68 were submitted to NCI and assayed in the NCI's in vitro disease-oriented antitumor screen, which involves determination of a test compound's effects on the growth of approximately 60 human tumor cell lines. See, M. R. Boyd, et al. In Cancer: Principles and Practice of Oncology Updates; De Vita, V. T., Hellman, S., Rosenberg, S. A., Eds; J. B. Lippincoft: Philadelphia, pp 1-12 (1989); and A. Monks, et al. J. Natl. Cancer Inst. 83:757 (1991). These lines include leukemia, non-small cell lung, colon, central nervous system (CNS), melanoma, ovarian, renal, prostate, and breast cancers.
(§2) Compounds 29'-51' were submitted to NCI and assayed in the NCI's in vitro disease-oriented antitumor screen, using the techniques described in Example 5. This assay involves determinations of a test agent's effect on growth parameters against a panel of approximately 60 human tumor cell lines, derived largely from solid tumors, including non-small cell lung, colon, central nervous system, renal, ovarian, prostate, and breast cancers, plus a few leukemia cell lines. The cytotoxic effects of each compound are obtained as GI50 or […] values, which represent the molar drug concentrations required to cause half growth inhibition and total growth inhibition, respectively. The results are expressed for each cell line as average log GI50 values in Table 4, as log GI50 values in Table 5, and as log TGI values and average log TGI values in Table 6.

Experiment [2] relates to OVCAR-3 ovarian cancer cell line. The experiment in a line: NCI in vitro screen, ovarian cancer OVCAR-3. The following applies: Homo sapiens, read-out: Cytotoxicity log GI50 (converted).
The subject of experiment [3] is 786-0 renal cancer cell line. Briefly: NCI in vitro screen, renal cancer 786-0. The following applies: Homo sapiens, read-out: Cytotoxicity log GI50 (converted).
Source text: as §1, §2

The test system of experiment [4] is SF-295 CNS cancer cell line. Briefly: NCI in vitro screen, CNS cancer SF-295. The following applies: Homo sapiens, read-out: Cytotoxicity log GI50 (converted).
The subject of experiment [5] is SK-MEL-5 melanoma cell line. Briefly: NCI in vitro screen, melanoma SK-MEL-5. The following applies: Homo sapiens, read-out: Cytotoxicity log GI50 (converted).
Source text: as §1, §2

Experiment [6] concerns NCI-H460 non-small cell lung cancer cell line. The experiment in a line: NCI in vitro screen, non-small cell lung cancer NCI-H460. The following applies: Homo sapiens, read-out: Cytotoxicity log GI50 (converted).
Experiment [7] deals with HL-60(TB) leukemia cell line. The experiment in a line: cells. The following applies: Homo sapiens; HL-60(TB); read-out: Cytotoxicity log GI50 (converted).
Experiment [8] concerns NCI's 60 human tumor cell line. The experiment in a line: NCI 60 human tumor cell line in vitro screen (average / whole panel). The following applies: calculated from all cell lines tested, molar concentrations, read-out: average log GI50 (converted).
For experiment [9], the system named is MDA-MB-435 breast cancer cell line. The experiment in a line: NCI in vitro screen, breast cancer MDA-MB-435. The following applies: Homo sapiens, read-out: Cytotoxicity log GI50 (converted).
Experiment [10] concerns PC-3 prostate cancer cell line. The experiment in a line: NCI in vitro screen, prostate cancer PC-3. The following applies: Homo sapiens, read-out: Cytotoxicity log GI50 (converted).
Source text: as §1, §2

Experiment [11] has as its system U-251 CNS cancer cell line. Briefly: NCI in vitro screen, CNS cancer U-251. The following applies: Homo sapiens, read-out: Cytotoxicity log GI50 (converted).
In experiment [12] the test system is HCT-116 colon cancer cell line. Briefly: NCI in vitro screen, colon cancer HCT-116. The following applies: Homo sapiens; HCT-1.16 (head); HCT-116 (footnote); read-out: Cytotoxicity log GI50 (converted).

A word on the GI50: it is the concentration giving 50% growth inhibition. For `Cc1ccnc2[nH]c(-c3cccc(Cl)c3)cc(=O)c12` [33'], the GI50 in [1] was 11.7 nM; in experiment [2] it was 31.6 nM; in [3] it was 33.1 nM; in experiment [4], 40.7 nM; in experiment [5], 41.7 nM; in experiment [6], 38.9 nM. Besides, the GI50 in experiment [7] was 10 nM; in [8] it was 158 nM; in [9], below 10 nM; in experiment [10] it was 15500 nM; in [11] it was 52.5 nM; in [12] it was 15.8 nM.
Take `Cc1cnc2[nH]c(-c3cccc(Cl)c3)cc(=O)c2c1` [34']: the GI50 in [1] was above 100000 nM; in [2], 22.4 nM; in experiment [3] it was 42.7 nM; in [4], 25.1 nM; in [5], 70.8 nM; in [6], 50.1 nM. The 50% growth inhibitory concentration (GI50) in experiment [7] is 30.9 nM; in experiment [8] it was 269 nM; in [9] it was below 10 nM; in [10], above 100000 nM; in [11], 69.2 nM; in [12] it was 30.2 nM.
For the molecule `Cc1ccc2c(=O)cc(-c3cccc(Cl)c3)[nH]c2n1` [35'], the GI50 in experiment [1] was above 100000 nM; in [2] it was below 10 nM; in [3], 41.7 nM; in experiment [4] it was 22.9 nM; in experiment [5] it was 31.6 nM; in experiment [6], 41.7 nM. For the same molecule, the GI50 in experiment [7] is 28.8 nM; in experiment [8] it was 170 nM; in [9], below 10 nM; in experiment [10] it was above 100000 nM; in experiment [11], 64.6 nM; in [12], 25.7 nM.
Regarding `Cc1cc(C)c2c(=O)cc(-c3cccc(Cl)c3)[nH]c2n1` [36'], the GI50 is 19.1 nM in experiment [1]; 170 nM in [2]; 204 nM in experiment [3]; 47.9 nM in experiment [4]; 117 nM in experiment [5]; 224 nM in experiment [6]. Besides, the GI50 in experiment [7] is 74.1 nM; in experiment [8], 347 nM; in experiment [9], 13.2 nM; in experiment [10], 27.5 nM; in experiment [11] it was 295 nM; in experiment [12], 170 nM.
Take `Cc1cccc(-c2cc(=O)c3cccnc3[nH]2)c1` [37']: the GI50 in [1] was below 10 nM; in experiment [2], 41.7 nM; in [3] it was 37.2 nM; in experiment [4] it was 37.2 nM; in [5], 25.7 nM; in [6] it was 25.7 nM. The GI50 is 19.1 nM in experiment [7]; 95.5 nM in [8]; below 10 nM in experiment [9]; 42.7 nM in [10]; 44.7 nM in experiment [11]; 22.4 nM in experiment [12].
Consider `Cc1cccc(-c2cc(=O)c3c(C)ccnc3[nH]2)c1` [38'], for which the GI50 in [1] was 11 nM; in experiment [2], 22.4 nM; in experiment [3], 53.7 nM; in experiment [4], 30.2 nM; in experiment [5], 33.9 nM; in experiment [6] it was 36.3 nM. In addition, the GI50 is 18.2 nM in [7]; 57.5 nM in [8]; below 10 nM in [9]; 33.1 nM in experiment [10]; 53.7 nM in experiment [11]; 46.8 nM in [12].
Take `COc1ccccc1-c1cc(=O)c2cccnc2[nH]1` [Compound 39]: the concentration for 50% growth inhibition (GI50) in experiment [1] is 20000 nM; in experiment [2], 47900 nM; in [3], 36300 nM; in experiment [4], 23400 nM; in experiment [5], 31600 nM; in [6] it was 38900 nM. Besides, the GI50 in experiment [7] is 38900 nM; in experiment [8], 40700 nM; in experiment [9] it was 39800 nM; in experiment [10], 29500 nM; in [11] it was 67600 nM; in [12], 27500 nM.
As for `Cc1cccc(C2=Nc3nc(C)ccc3C(=O)C2)c1` [Compound 40, 2-(3'-Methylphenyl)-7-methyl-1,8-naphthyridin-4-one], the GI50 is 31.6 nM in experiment [1]; 490 nM in [2]; 427 nM in experiment [3]; 60.3 nM in experiment [4]; 126 nM in experiment [5]; 17.8 nM in [6]. Further, the GI50 in [7] was 26.9 nM; in experiment [8], 97.7 nM; in [9], 32.4 nM; in experiment [10], 138 nM; in experiment [11], 200 nM; in experiment [12], 120 nM.
With `COc1ccccc1-c1cc(=O)c2c(C)ccnc2[nH]1` [Compound 40], the GI50 in experiment [1] is 8320 nM; in experiment [2], 12900 nM; in experiment [3], 60300 nM; in experiment [4], 23400 nM; in experiment [5], 22400 nM; in experiment [6], 24000 nM. For the same molecule, the GI50 in [7] is 20900 nM; in experiment [8] it was 2820 nM; in [9], 6460 nM; in [10] it was 20900 nM; in [11], 35500 nM; in experiment [12], 7590 nM.
Turning to `COc1ccccc1-c1cc(=O)c2cc(C)cnc2[nH]1` [Compound 41], the GI50 was 4470 nM in [1]; 19500 nM in experiment [2]; 41700 nM in experiment [3]; 30900 nM in experiment [4]; 20400 nM in experiment [5]; 32400 nM in experiment [6]. For the same molecule, the GI50 is 9550 nM in experiment [7]; 31600 nM in experiment [8]; 3020 nM in experiment [9]; 26900 nM in experiment [10]; 27500 nM in [11]; 42700 nM in experiment [12].
For `COc1ccccc1-c1cc(=O)c2ccc(C)nc2[nH]1` [Compound 42], the GI50 in experiment [1] was 20000 nM; in [2], above 100000 nM; in [3], above 100000 nM; in experiment [4], above 100000 nM; in [5], 51300 nM; in experiment [6] it was 97700 nM. For the same molecule, the 50% growth inhibitory concentration (GI50) was 74100 nM in experiment [7]; 79400 nM in [8]; 21900 nM in experiment [9]; above 100000 nM in experiment [10]; above 100000 nM in [11]; 38000 nM in [12].
On to `Cc1ccnc2c1C(=O)CC(c1cccc3ccccc13)=N2` [Compound 43, 2-(α-Naphthyl)-5-methyl-1,8-naphthyridin-4-one], for which the GI50 was below 10 nM in experiment [1]; below 10 nM in experiment [2]; 12 nM in experiment [3]; 10.7 nM in experiment [4]; below 10 nM in experiment [5]; below 10 nM in experiment [6]. Also, the GI50 was below 10 nM in [7]; 35.5 nM in experiment [8]; below 10 nM in [9]; 20 nM in experiment [10]; below 10 nM in experiment [11]; below 10 nM in experiment [12].
Turning to `COc1ccccc1-c1cc(=O)c2c(C)cc(C)nc2[nH]1` [Compound 43], the GI50 in experiment [1] was 33100 nM; in experiment [2], 64600 nM; in [3] it was above 100000 nM; in experiment [4], 53700 nM; in [5], 33900 nM; in experiment [6] it was 70800 nM. Further, the GI50 was 30200 nM in [7]; 57500 nM in experiment [8]; 32400 nM in [9]; 47900 nM in [10]; above 100000 nM in experiment [11]; 74100 nM in experiment [12].
Consider `Cc1cnc2c(c1)C(=O)CC(c1cccc3ccccc13)=N2` [Compound 44, 2-(α-Naphthyl)-6-methyl-1,8-naphthyridin-4-one], for which the GI50 in experiment [1], in [2], in experiment [3], in experiment [4], in [5] and in experiment [6] was below 10 nM each time. Also, the GI50 in experiment [7] was below 10 nM; in experiment [8], 19.1 nM; in experiment [9], below 10 nM; in [10] it was below 10 nM; in experiment [11], below 10 nM; in experiment [12], below 10 nM.
`Cc1ccc2c(n1)N=C(c1cccc3ccccc13)CC2=O` [Compound 45, 2-(α-Naphthyl)-7-methyl-1,8-naphthyridin-4-one]: the GI50 in experiment [1] is below 10 nM; in experiment [2], below 10 nM; in experiment [3], 6030 nM; in [4] it was 24 nM; in experiment [5], 13.8 nM; in experiment [6], 17.4 nM. For the same molecule, the GI50 in [7] was below 10 nM; in [8], 66.1 nM; in experiment [9], below 10 nM; in [10], 30.2 nM; in experiment [11], 15.5 nM; in experiment [12], below 10 nM.
